Measurements from US9464064B2, “HCV helicase inhibitors and methods of use thereof” (University of Kansas, priority 2011, dated 2016).
Read-outs that look alike come from different tables or passages of the source.

How the values were obtained:
[1] = test system: MBHA DNA substrate; assay: Modified FID assay, SYBR Green I; assay type: binding; conditions: FID; mean ± SD; read-out: DNA Binding (SYBR Green I) EC50
Procedure: A modified FID assay, in which ethidium bromide was replaced with SYBR Green I (Invitrogen), was used to estimate a compounds affinity for the MBHA substrate. Reactions were performed as described above except that the DNA substrate was present at 0.32 μM, ethidium bromide was absent, and SYBER Green was present at (0.68 μM). Data were normalized as described above and fit to concentration-response equation using GraphPad Prism software. Titrations with each compound were performed in triplicate, and EC50 values from three independent titrations are reported ±standard deviations.

[2] = biological target: MBHA DNA substrate; assay: Fluorescent intercalation displacement (FID) assay, ethidium bromide; assay type: binding; conditions: for EC50: FID, mean ± SD, read-out: DNA Binding (Ethidium Bromide) EC50
Procedure: Fluorescent intercalation displacement (FID) assays (Boger, et al. (2001) J. Am. Chem. Soc. 123:5878-5891) were used to measure the ability of a compound to bind the MBHA substrate. The concentration at which half the ethidium bromide is displaced (EC50) was determined using the different conditions as above to more closely mimic the conditions of a standard helicase assay. Each 100 μL reaction contained 25 mM MOPS pH 6.5, 0.16 μM MBHA DNA substrate (lacking Cy5 and IBQ-RQ modifications), 2 μM ethidium bromide, and various concentrations of test compound. Fluorescence of ethidium bromide was monitored using excitation and emission wavelengths of 545 and 595 nm, respectively, on a Cary Eclipse fluorescence spectrophotometer in white 96-well plates. The amount of ethidium bromide-DNA complex fluorescence was used to estimate the ability of compounds to bind DNA, and therefore displace the fluorescent intercalator (ethidium bromide).
In Equation 4, Fc is the fluorescence in the presence of the compound, F(−) is the average DMSO-only negative controls, and F(+) is the average positive controls (100 μM berenil). EC50 values were from a normalized dose-response curve.
These twelve hits were then subjected to a counterscreen designed to independently identify DNA binding compounds using a modified fluorescent intercalator displacement (FID) assay (Boger, et al. (2001) supra). The FID assay used ethidium bromide to judge a compound's ability to bind DNA and was based on the assumption that a DNA binding compound would displace a fluorescent DNA intercalating agent, leading to an observable decrease in observed fluorescence. Compounds were tested at 1.5 μM in the presence of the 25 base pair substrate used in the helicase assays.

[3] = biological target: T1, HCV NS3 helicase NS3h_1b(con1) (Hepatitis C virus genotype 1b, UniProt Q9WMX2); assay: biochemical; assay type: biochemical, hepatitis C virus genotype 1b(con1)
T1 construct: truncated C-terminally His-tagged NS3 proteins lacking the N-terminal protease, called NS3h; His-tag (C); made in house
T1 sequence (Q9WMX2 1192-1657): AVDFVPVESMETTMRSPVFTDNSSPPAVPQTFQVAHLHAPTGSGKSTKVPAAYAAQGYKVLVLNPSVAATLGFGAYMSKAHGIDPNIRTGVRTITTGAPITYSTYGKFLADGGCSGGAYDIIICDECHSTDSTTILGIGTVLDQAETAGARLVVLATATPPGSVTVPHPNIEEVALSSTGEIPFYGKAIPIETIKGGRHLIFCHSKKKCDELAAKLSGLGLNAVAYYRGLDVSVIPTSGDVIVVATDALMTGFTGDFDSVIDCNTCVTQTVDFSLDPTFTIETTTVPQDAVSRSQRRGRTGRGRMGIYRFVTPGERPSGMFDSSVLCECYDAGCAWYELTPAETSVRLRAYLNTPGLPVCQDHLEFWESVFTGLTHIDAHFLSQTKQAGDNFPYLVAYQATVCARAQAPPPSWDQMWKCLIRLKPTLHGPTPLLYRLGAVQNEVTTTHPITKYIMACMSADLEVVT
Excerpt: All oligonucleotides were purchased from Integrated DNA Technologies (IDT, Coralville, Iowa). The partially duplex DNA substrates used in MBHAs consisted of a helicase substrate forming 25 base pairs and consists of a 45-mer bottom strand 5′-GCTCCCCGTTCATCGATTGGGGAGC(T)20-3′ (SEQ ID NO:1) and the 25-mer HCV top strand 5′-Cy5-GCTCCCCAATCGATGAACGGGGAGC-IBRQ-3′ (SEQ ID NO:2). The 19 base pair RNA substrate used in MBHAs was composed of a 39 nucleotide long bottom strand 5′-AGU GCC UUG ACG AUA CAG C(U)20-3′ (SEQ ID NO:3) and the 24 nucleotide long top strand 5′-Tye^665-AGUGCGCUGUAUCGUCAAGGCACU-IBRQSp-3′ (SEQ ID NO:4). Underlined areas denote hairpin-forming regions. DNA and RNA substrates were annealed and purified as described previously (Belon & Frick (2008) BioTechniques 45:433-40, 442).
The cloning, expression, and purification of His-tagged recombinant HCV NS3 protein have been described previously (Lam, et al. (20030 J. Virol. 77:3950-61; Heck, et al. (2008) Antimicrob. Agents Chemother. 52:1901-11; Frick et al. (2010) Methods Mol. Biol. 587:223-233; Belon, et al. & Frick (2009) J. Mol. Biol. 388:851-864).
All molecular beacon-based helicase assays (MBHAs) were performed according to known methods (Belon & Frick (2008) supra; Belon & Frick (2009) supra). […] In each flat, black 384-well plate, 56 compounds were tested, in triplicate, along with three negative controls (DMSO only), three positive controls (500 nM dT20), and two wells with no enzyme. Fluorescence was read before ATP (F0) addition and 30 minutes after ATP was added to 1 mM (F30) using a Tecan Infinite M200 fluorescence microplate reader with excitation and emission wavelengths set to 643 and 670 nm, respectively. Percent inhibition was calculated with equation 1, and compound interference in the MBHA was calculated with equation 2.
To monitor helicase reaction kinetics and to calculate IC50 values, MBHAs were performed in 60 μL in white ½ area 96-well plates and measured in a Thermo Varioscan Multimode reader (Thermo Scientific) using the 643 nm excitation wavelength and 667 emission wavelengths. Reactions were again performed by first incubating all components except for ATP for two minutes, then initiated by injecting in 1/10 volume of ATP such that the final concentration of all components was as noted above. Conditions were as described above except that 5% v/v DMSO was present in each assay. Initial reaction velocities were calculated by fitting first-order decay equation to data obtained after ATP addition and calculating an initial velocity form the resulting amplitude and rate constant.
[formula] where, v0 is the velocity observed in DMSO-only controls inhibition, h is the Hillslope coefficient, [I] is the concentration of test compound.

[4] = biological target: T2, NS3h_1b(con1) (Hepatitis C virus genotype 1b, UniProt Q9WMX2); assay: ATP hydrolysis assay (malachite green); assay type: biochemical
T2 construct: truncated C-terminally His-tagged NS3 proteins lacking the N-terminal protease, called NS3h; His-tag (C); made in house
T2 sequence (Q9WMX2 1192-1657): as the sequence (Q9WMX2 1192-1657) above
Procedure: A modified “malachite green” assay (Lanzetta, et al. (1979) Anal. Biochem. 100:95-97) was used to measure ATP hydrolysis. Fifty μL reactions contained 25 mM MOPS pH 6.5, 5 mM MgCl2, 2 mM ATP, 5 μg/mL BSA, 0.01% (v/v) TWEEN 20, 0.05 mM DTT, and poly(U) RNA (Saint Louis, Mo.) as indicated. Reactions were initiated by adding NS3h_1b(con1). Reactions were incubated for 15 minutes at 37° C. then stopped by mixing 40 μL of the reaction into 200 μL of the malachite green reagent (3 volumes 0.045% (w/v) malachite green, 1 volume 4.2% ammonium molybdate in 4N HCl, 0.05 volume of 20% TWEEN 20). […] Absorbance at 630 nm was proportional to the concentration of phosphate produced; free phosphate produced was measured against a standard curve.

[5] = biological target: T3, E. coli SSB-Cy5-dT15 complex (Escherichia coli, UniProt P0AGE0); assay: Escherichia coli SSB Cy5-dT15 binding assay (fluorescence polarization); conditions: disruption of Cy5-dT15-SSB complex; read-out: Cy5-dT15-SSB Binding IC50
T3 construct: purchased Promega
T3 sequence (P0AGE0 2-178, one chain of several): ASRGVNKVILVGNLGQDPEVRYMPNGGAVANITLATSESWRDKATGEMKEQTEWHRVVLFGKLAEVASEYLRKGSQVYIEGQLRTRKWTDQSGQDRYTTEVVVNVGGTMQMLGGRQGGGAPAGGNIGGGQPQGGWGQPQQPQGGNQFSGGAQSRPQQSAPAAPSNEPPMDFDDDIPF
Procedure: The Escherichia coli SSB assay was performed in a total volume of 20.2 μl in 384-well, flat-bottom, low volume, black microplates (Greiner Bio-One). First, 20 μl of a assay solution (5 nM Cy5-[…]-3′ (Cy5-dT15, SEQ ID NO:5), 20 nM E. coli SSB (Promega), 25 mM MOPS, pH 7.5, 1.25 mM MgCl2, 0.0025 mg/ml BSA, 0.005% (v/v) TWEEN 20 and 0.025 mM DTT) was dispensed in each well, then 0.2 μl of dimethylsulfoxide (DMSO) or compound dissolved in DMSO was added by pin transfer, such that the final concentration of DMSO was 1% (v/v) in each assay.
For IC50 determination, assays were performed with 60 μl total volume in black flat bottomed 384-well microplates (Corning). First, 3.0 μl of DMSO or compound dissolved in DMSO was added, such that the final concentration of DMSO was 5% (v/v) in each assay. Then 57 μl of a assay solution (5 nM Cy5-dT15, 20 nM SSB, 25 mM MOPS, pH 7.5, 1.25 mM MgCl2, 0.0025 mg/ml BSA, 0.005% (v/v) TWEEN 20 and 0.025 mM DTT) was dispensed in each well. Polarization was monitored with a TECAN Infinite M1000 PRO multi-mode microplate reader by exciting at 635 nm (5 nm bandwidth) and measuring total fluorescence intensity, parallel and perpendicular polarized light at 667 nm (20 nm bandwidth).

[6] = test system: Huh-7.5 cells; assay: Cell viability assay ([…]-GLO); assay type: cell-based, human; conditions: 10 μM
Procedure: To assess compound toxicity toward Huh-7.5 cells, cells were plated and treated as above and cell viability was assessed using the […]-GLO luminescent cell viability kit (PROMEGA) following the manufacturer's instructions. Briefly, at the end of a 72 hour incubation period, the medium was aspirated and the cells were washed with 1×PBS, then an equal volume of growth medium and […]-GLO reagent was added and the lysis was initiated by mixing on an orbital shaker. The plate was incubated at 23° C. for 30 minutes and the luciferase activity was measured for 1 second using the FLUOSTAR Omega microplate reader (BMG Labtech).

[7] = biological target: T1, HCV NS3 helicase NS3h_1b(con1); assay: MBHA screen of NCI mechanistic set library at 20 μM (percent inhibition, compound interference); assay type: biochemical; conditions: compounds at 20 μM; for Inh. (%) (Inhibition): calculated from Equation 1
Procedure, shortened: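 Molecular beacon-based DNA unwinding assay; compounds screened at 20 μM in triplicate, with DMSO-only negative and 500 nM dT20 positive controls. Fluorescence (ex 643/em 670 nm) was read before and 30 min after adding ATP to 1 mM. Percent inhibition came from the change relative to DMSO controls; interference from pre-ATP fluorescence versus DMSO controls.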

[8] = MBHA, DNA unwinding, mean ± SD of three titrations, read-out: Helicase IC50
[9] = standard HCV helicase MBHA (Table 9), read-out: DNA Unwinding IC50

SMILES | EC50 [1] | EC50 [2] | IC50 [3, 8] | IC50 [3, 9] | IC50 [4] | IC50 [5] | other results
Cc1cc2sc(-c3ccc(N)cc3)nc2cc1S(=O)(=O)O [Compound P1b, 2-(4-aminophenyl)-6-methylbenzo[d]thiazole-5-sulfonic acid] | > 100 µM | > 100 µM | 122 ± 5 µM | 122 ± 5 µM | > 100 µM | 19 ± 8 µM | –
CCOc1ccc2c(NNC(=O)c3cnccn3)c3c(nc2c1)CCCC3 [Compound 1, reference compound] | > 100 µM | > 100 µM | > 100 µM | – | > 100 µM | – | toxicity to cells [6]: None of the comparison helicase inhibitors were particularly toxic at 10 μM except for 1
Cc1c2ccncc2c(C)c2c1[nH]c1ccccc12 [ellipticine, reference compound] | – | – | 5.6 ± 0.8 µM | – | – | – | –
N=C(N)c1ccc(N=NNc2ccc(C(=N)N)cc2)cc1 [Berenil, reference compound] | – | – | – | – | – | – | IC50 ([2]; ethidium bromide FID, read-out: IC50 in FID assays (positive control)): 1.6 ± 0.1 µM
CN1CCN(Cc2cc(CN3CCN(C)CC3)c(O)c(=O)c(CN3CCN(C)CC3)c2)CC1 [Compound 4, reference compound] | 74 ± 21 µM | > 100 µM | 19 ± 8 µM | – | > 100 µM | – | –
Cc1ccc2nc(-c3ccc(N)cc3)sc2c1S(=O)(=O)O [Compound P1a, 2-(4-aminophenyl)-6-methylbenzo[d]thiazole-7-sulfonic acid] | > 100 µM | > 100 µM | 70 ± 31 µM | 70 ± 31 µM | > 100 µM | 13 ± 4 µM | –
CCN(CC)c1ccc(-c2nc3ccc(-c4nc5ccc(C)c(S(=O)(=O)O)c5s4)cc3s2)cc1 [Compound T2, 2′-(4-(diethylamino)phenyl)-6-methyl-[2,6′-bibenzo[d]thiazole]-7-sulfonic acid] | – | > 100 µM | 26 ± 21 µM | 5 ± 2 µM | – | 2 µM | –
Cc1cc(C(O)(c2ccc(Nc3ccccc3)cc2)c2ccc(Nc3ccc(S(=O)(=O)O)cc3)cc2)ccc1N (stereo not shown) [Compound 3, reference compound] | 20 ± 2 µM | 4 ± 2 µM | 17 ± 7 µM | – | > 100 µM | – | –
Cc1cc2sc(-c3ccc4nc(-c5ccc(N)cc5)sc4c3)nc2cc1S(=O)(=O)O [Compound P2b, 2′-(4-aminophenyl)-6-methyl-[2,6′-bibenzo[d]thiazole]-5-sulfonic acid] | 32 ± 3 µM | 73 ± 36 µM | 10 ± 4.6 µM | 7 ± 4 µM | > 100 µM | 1 µM | –
CCN(CC)c1ccc(-c2nc3ccc(C)c(S(=O)(=O)O)c3s2)cc1 [Compound T1, 2-(4-(diethylamino)phenyl)-6-methylbenzo[d]thiazole-7-sulfonic acid] | – | > 100 µM | 33 ± 24 µM | 33 ± 24 µM | > 100 µM | 7 ± 2 µM | –
O=C1C(C(O)(C(F)(F)F)C(F)(F)F)CCC1C(O)(C(F)(F)F)C(F)(F)F (stereo not shown) [Compound 664181] | – | – | – | – | – | – | Int.* (Ratio) (Interference) ([7]; MBHA with DNA substrate, assay interference calculated with Equation 2): 0.84 Ratio; Inh. (%) (Inhibition) ([7]; MBHA with DNA substrate): 14.5%
C1COCCN1.S=C(S)N1CCOCC1 [Compound 4114] | – | – | – | – | – | – | Inh. (%) (Inhibition) ([7]; MBHA with a DNA substrate): 7.2%; Int.* (Ratio) (Interference) ([7]; assay interference calculated with Equation 2 (fluorescence vs DMSO-only controls before ATP)): 1.15 Ratio
